Data set [1] has as its target T1, adenosine deaminase (ADA) (Homo sapiens, UniProt P00813).
T1 sequence (P00813 1-363): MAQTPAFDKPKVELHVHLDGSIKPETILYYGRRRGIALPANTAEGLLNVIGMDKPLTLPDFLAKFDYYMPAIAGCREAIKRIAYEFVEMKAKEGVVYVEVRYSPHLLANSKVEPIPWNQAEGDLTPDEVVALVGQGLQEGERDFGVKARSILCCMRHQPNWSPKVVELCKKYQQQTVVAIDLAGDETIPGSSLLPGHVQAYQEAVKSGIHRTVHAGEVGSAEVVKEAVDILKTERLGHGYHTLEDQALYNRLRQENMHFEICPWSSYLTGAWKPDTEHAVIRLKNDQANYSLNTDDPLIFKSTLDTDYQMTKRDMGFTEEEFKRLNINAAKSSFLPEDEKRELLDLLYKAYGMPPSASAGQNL
The settings on record: 0.5 mM, pH 7.5. The procedure:
Adenosine has been confirmed to be promptly hydrolyzed into inosine and hypoxanthine by adenosine deaminase (ADA) intrinsically present in living bodies. To examine the possibility of sustainably exerting effects by glucosyladenosines as adenosine glycosides, a test for confirming whether 5′- and 3′-glucosyladenosines are hydrolyzed in living bodies was conducted using a cell lysate of a normal human fetal fibroblast as a source for an adenosine metabolism-relatedenzyme. “NHDF cells”, a normal human fetal fibroblast, commercialized by Kurabo Industries, Osaka, Japan (called “NHDF cells”, hereinafter), which had been diluted with “Dulbecco's Modified Eagle Medium “Nissui” (abbreviated as […], hereinafter), a product name of a Dulbecco's Medium Essential Medium, commercialized by Nissui Pharmaceutical Co., Ltd., Tokyo, Japan, containing 10 v/v % fetal calf serum […] (called “FCS”, hereinafter) was inoculated to 150 cm^2 culture flasks (commercialized by Corning, N.Y., USA) in a cell amount of 1.5×10^6 cells/20 ml/flask, and cultured for four days. After removing each culture supernatant, the resulting cells were treated with “Trypsin-EDTA”, a product name of 0.05% by mass of trypsin/EDTA solution, commercialized by Gibco, NY., USA, followed by collecting the cell suspensions from each flask. […] CELL DISROPTOR 185” thrice (30 sec×twice for each) for cell disruption, centrifuged at 15,000 rpm for five minutes to collect supernatants as a cell lysate. 0.9 ml of the cell lysate and 0.1 ml of phosphate buffered saline (PBS), which had been prepared by dissolving either the 5′-glucosyladenosine that had had been prepared in Experiment 1-2 or the 3′-glucosyladenosine that had had been prepared in Experiment 2 to give a concentration of 5 mM, were mixed, stirred, and allowed to react at 37° C. Reaction solutions at reaction times 0, 1, 7 and 24 hours after initiating the reaction were collected, treated with the same method as in Experiment 3, and quantified for adenosine and glucosyladenosines by an HPLC method. Relative values for concentrations of these compounds at respective reaction times were calculated when the concentration at the reaction initiation for each compound was regarded as 100%, and they are shown in Table 3 as residual percentages of adenosine or glucosyladenosines.

The test system of data set [2] is profilaggrin. Kind of data set: Differentiation of keratinocytes: profilaggrin protein expression in NHEK cells by western blotting. The data set is classed as cell-based, human. To be noted: eight days, relative to no addition = 1. The text has this: For the anti-wrinkle action of glucosyladenosines, the effect of glucosyladenosines on keratinocytes in the skin was examined as follows using normal human epidermal keratinocytes commonly used for evaluating accelerators for differentiating keratinocytes in the skin. Using normal human epidermal keratinocytes (derived from human newborn and commercialized by Kurabo Industries Ltd., Okayama, Japan, and abbreviated as “NHEK cells”, hereinafter), the effects of glucosyladenosines on the differentiation of keratinocytes was evaluated by comparing the expression level of profilaggrin, as a marker protein of cells in the granular layer, which is specifically expressed in the cells when keratinocytes differentiate into the cells from those in the basal lamina and which is determined by the western blotting method using an antibody specific to the marker protein. In this experiment, the increment of profilaggrin means that cells in the granular layer have been increased as a result of accelerating the differentiation of keratinocytes in the basal lamina.
NHEK Cells, which had been suspended in EpiLife medium, commercialized by Caskade Biologics Inc., Oregon, USA, containing EDGS (EpiLife Defined Growth Supplement) (abbreviated as “EpiLife medium containing EDGS”, hereinafter), were inoculated to “FALCON MULTI-WELL™ 6WELL”, 6-well plate, commercialized by Becton, Dickinson and Co., NJ, USA, which had been coated with “Cellmatorix Type IV”, a product name of collagen, commercialized by Nitta Gelatin Inc., Osaka, Japan, in a cell amount of 5×10^5 cells/1.5 ml/well; and cultured at 37° C. for two days under a 5 v/v % CO2 condition. […] As control 1, adenosine was diluted with EpiLife medium to give a final concentration of 0.1 μM, 1 μM or 10 μM, and the dilution was added to the plates in a volume of 1.5 ml/well. As control 2, EpiLife medium was only added to plates in a volume of 1.5 ml/well. Thereafter, the cells were incubated for eight days while replacing the medium in each well with a fresh preparation of the same medium as added initially every other day. The culture medium in each well was removed by aspiration, and the resulting cells were washed by adding PBS, followed by adding an extraction buffer to the cells in a volume of 100 μl/well, detaching the cells from each well with a cell scraper, and collecting the cells in “EPPENDORF TUBE”, a product name of a 1.5 ml microtube, commercialized by Eppendorf AG, Hamburg, Germany. The collected cells were mixed by a vortex mixer, suspended, allowed to stand over ice for 30 min, and centrifuged at 15,000×g for 10 min at 4° C. to collect a supernatant for use as a sample for analysis. 20 mM Tris-HCl buffer (pH 8.0) containing 2% by mass of sodium dodecyl sulfate (SDS), 1 mM edetic acid, 20 μM phenylmethylsulfonyl fluoride (PMSF), 20 μM leupeptin, and 0.1 μM aprotinin was used as an extraction buffer.
Twelve microliters of the above sample for analysis was added to eight micriloters of 2.5 w/v % SDS aqueous solution containing 5 v/v % dithiothreitol (DTT), and the mixture was in usual manner subjected to SDS-polyacrylamide gel electrophoresis after charged on an SDS-polyacrylamide gel in an amount of 20 μg protein per lane. After completing the electrophoresis, proteins contained in the gel were in usual manner transferred to a nitrocellulose membrane, which was then soaked in “BlockAce”, a product name of a blocking solution commercialized by Dainippon Sumitomo Pharma Co., Ltd., Osaka, Japan, to inhibit non-specific reactions. […]
Background: Immunoblotting shows a protein as a band on a membrane.

Structures are written as SMILES. Read-outs that look alike come from different tables or passages of the source. Marks after values point to notes of the source that are not given here.

For `Nc1ncnc2c1ncn2[C@@H]1O[C@H](CO)[C@@H](O[C@H]2O[C@H](CO)[C@@H](O)[C@H](O)[C@H]2O)[C@H]1O` [3′-Glucosyladenosine, α-D-glucopyranosyl-(1→3′)-adenosine], the Remaining percentage in data set [1] (0 h) was 100%; in data set [1] (1 h), 95%; in data set [1] (7 h) it was 86%; in data set [1] (24 h), 17%. The “Expression level of profilaggrin” value is on record as 1.6* in data set [2] (0.1 μM in medium), 2.4** in data set [2] (1 μM in medium) and 2.0** in data set [2] (10 μM in medium).

Regarding `Nc1ncnc2c1ncn2[C@@H]1O[C@H](CO[C@H]2O[C@H](CO)[C@@H](O)[C@H](O)[C@H]2O)[C@@H](O)[C@H]1O` [5′-Glucosyladenosine, α-D-glucopyranosyl-(1→5′)-adenosine], the Remaining percentage turned out to be 100% in data set [1] (0 h), 101% in data set [1] (1 h), 100% in data set [1] (7 h) and 96% in data set [1] (24 h). Also, the “Expression level of profilaggrin” value in data set [2] (0.1 μM in medium) is given as 2.1*; in data set [2] (1 μM in medium), 3.8**; in data set [2] (10 μM in medium), 2.8**.

Regarding `Nc1ncnc2c1ncn2[C@@H]1O[C@H](CO)[C@@H](O)[C@H]1O` [Adenosine, reference compound], the Remaining percentage stood at 100% in data set [1] (0 h), 53% in data set [1] (1 h), 0% in data set [1] (7 h) and 0% in data set [1] (24 h). Also, the “Expression level of profilaggrin” value in data set [2] (0.1 μM in medium) turned out to be 1.1; in data set [2] (1 μM in medium) it was 1.2; in data set [2] (10 μM in medium), 0.9.
